In the supplement of paper PMC11208160:

assay: recombinant UMI read abundance after kanamycin selection (control-corrected) (log10(CPM+1)); higher = more efficient recombination; extreme values may be limits of the assay; sequences stand for … in AGTGCAGAGAAAATCGGCCAGTTTTCTCTGCCTGCAGTCCGCATGCCGTGGGACCCCTTGGGTTCTAACCTGTTGCCTAGATTTATGCAGCGGACTGCCTTTCTCCCAAAGTGATAAACCGG…AGGTTGGTTTCACT; site = the 11-nt donor
Procedure, shortened: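 Two replicates each of selected and unselected plating were used in this pooled Escherichia coli screen of donor and donor-binding-loop pairs for the IS621 bridge recombinase. Selection was with IPTG (0.07 mM) and kanamycin. Counts of recombinant UMIs, amplified across the donor–target junction, were converted to CPM, averaged, scaled by control-derived factors and reported as log10(CPM+1).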
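Note: IS621 bridge recombinase in Escherichia coli cells against a fixed T5 target plasmid.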

“CTTAAAGCATGGACCGGTTTTCCCGGTAATCCGTATTTGAT (site CCTAAAGCTAT)” and “CTTAAAGCATGGACCGGTTTTCCCGGTAATCCGTATTTGAT (site CGTAAAGCTAT)” are the same in “recombinant UMI read abundance (log10)” value: 0 for the first, 0 for the second.

Compared with “CTTAAAGCATGGACCGGTTTTCCCGGTAATCCGTATTTGAT (site CTTAAAGCTAT)”, “CTTAATACATGGACCGGTTTTCCCGGTAATCCGTATTTGGC (site CATAATACTGC)” is lower in “recombinant UMI read abundance (log10)” value: 1.08 for the first, 0.00796 for the second.

“CTTAATACATGGACCGGTTTTCCCGGTAATCCGTATTTGGC (site CCTAATACTGC)” and “CTTAATACATGGACCGGTTTTCCCGGTAATCCGTATTTGGC (site CGTAATACTGC)” are within 0.2 log units of each other in “recombinant UMI read abundance (log10)” value: 0 for the first, 0.0463 for the second.

Going from “CTTAATACATGGACCGGTTTTCCCGGTAATCCGTATTTGGC (site CTTAATACTGC)” to “CTTACGGCATGGACCGGTTTTCCCGGTAATCCGTATTTGAT (site CTTACGGCTAT)”, the “recombinant UMI read abundance (log10)” value rises from 0 to 1.44.

First: CTTACTACATGGACCGGTTTTCCCGGTAATCCGTATTTGGC (site CTTACTACTGC)
Second: CTTAGAACATGGACCGGTTTTCCCGGTAATCCGTATTTGGC (site ATTAGAACTGC)
The “recombinant UMI read abundance (log10)” value of the first is higher: 0.688 for the first, 0 for the second.

Going from “CTTAGAACATGGACCGGTTTTCCCGGTAATCCGTATTTGGC (site CTTAGAACTGC)” to “CTTAGAACATGGACCGGTTTTCCCGGTAATCCGTATTTGGC (site GTTAGAACTGC)”, the “recombinant UMI read abundance (log10)” value falls from 1.4 to 0.016.

First: CTTAGAACATGGACCGGTTTTCCCGGTAATCCGTATTTGGC (site TTTAGAACTGC)
Second: CTTCAATCATGGACCGGTTTTCCCGGTAATCCGTATTTGGA (site CTTCAATCTTC)
The “recombinant UMI read abundance (log10)” value of the first is lower: 0 for the first, 1.71 for the second.

Compared with “CTTCACTCATGGACCGGTTTTCCCGGTAATCCGTATTTGTA (site CTTCACTCTTA)”, “CTTCACTCATGGACCGGTTTTCCCGGTAATCCGTATTTGTA (site CTTCCCTCTTA)” is lower in “recombinant UMI read abundance (log10)” value: 1.73 for the first, 0.00659 for the second.

“CTTCACTCATGGACCGGTTTTCCCGGTAATCCGTATTTGTA (site CTTCGCTCTTA)” and “CTTCACTCATGGACCGGTTTTCCCGGTAATCCGTATTTGTA (site CTTCTCTCTTA)” are within 0.2 log units of each other in “recombinant UMI read abundance (log10)” value: 0.00683 for the first, 0 for the second.

First: CTTCAGTCATGGACCGGTTTTCCCGGTAATCCGTATTTGGC (site CTTCAGTCTGC)
Second: CTTCATACATGGACCGGTTTTCCCGGTAATCCGTATTTGTT (site CTTCATACTAA)
The “recombinant UMI read abundance (log10)” value of the first is lower: 0.339 for the first, 1.32 for the second.

“CTTCCCTCATGGACCGGTTTTCCCGGTAATCCGTATTTGTG (site CTTCCCTCTCA)” and “CTTCCTACATGGACCGGTTTTCCCGGTAATCCGTATTTGTA (site CTTCCTACTTA)” are within 0.2 log units of each other in “recombinant UMI read abundance (log10)” value: 0.257 for the first, 0.451 for the second.

“CTTCGCACATGGACCGGTTTTCCCGGTAATCCGTATTTGAA (site CTTCGCACTTT)” and “CTTCTCTCATGGACCGGTTTTCCCGGTAATCCGTATTTGTA (site ATTCTCTCTTA)” are within 0.2 log units of each other in “recombinant UMI read abundance (log10)” value: 0.375 for the first, 0.402 for the second.

“CTTCTCTCATGGACCGGTTTTCCCGGTAATCCGTATTTGTA (site CATCTCTCTTA)” and “CTTCTCTCATGGACCGGTTTTCCCGGTAATCCGTATTTGTA (site CCTCTCTCTTA)” are within 0.2 log units of each other in “recombinant UMI read abundance (log10)” value: 0.954 for the first, 0.823 for the second.

Compared with “CTTCTCTCATGGACCGGTTTTCCCGGTAATCCGTATTTGTA (site CGTCTCTCTTA)”, “CTTCTCTCATGGACCGGTTTTCCCGGTAATCCGTATTTGTA (site CTACTCTCTTA)” is lower in “recombinant UMI read abundance (log10)” value: 1.35 for the first, 0.967 for the second.

Compared with “CTTCTCTCATGGACCGGTTTTCCCGGTAATCCGTATTTGTA (site CTCCTCTCTTA)”, “CTTCTCTCATGGACCGGTTTTCCCGGTAATCCGTATTTGTA (site CTGCTCTCTTA)” is lower in “recombinant UMI read abundance (log10)” value: 1.89 for the first, 0.693 for the second.

“CTTCTCTCATGGACCGGTTTTCCCGGTAATCCGTATTTGTA (site CTTATCTCTTA)” and “CTTCTCTCATGGACCGGTTTTCCCGGTAATCCGTATTTGTA (site CTTCACTCTTA)” are within 0.2 log units of each other in “recombinant UMI read abundance (log10)” value: 0.00276 for the first, 0 for the second.

“CTTCTCTCATGGACCGGTTTTCCCGGTAATCCGTATTTGTA (site CTTCCCTCTTA)” and “CTTCTCTCATGGACCGGTTTTCCCGGTAATCCGTATTTGTA (site CTTCGCTCTTA)” are within 0.2 log units of each other in “recombinant UMI read abundance (log10)” value: 0.181 for the first, 0.00811 for the second.

Compared with “CTTCTCTCATGGACCGGTTTTCCCGGTAATCCGTATTTGTA (site CTTCTATCTTA)”, “CTTCTCTCATGGACCGGTTTTCCCGGTAATCCGTATTTGTA (site CTTCTCACTTA)” is lower in “recombinant UMI read abundance (log10)” value: 0.394 for the first, 0.0108 for the second.

“CTTCTCTCATGGACCGGTTTTCCCGGTAATCCGTATTTGTA (site CTTCTCCCTTA)” and “CTTCTCTCATGGACCGGTTTTCCCGGTAATCCGTATTTGTA (site CTTCTCGCTTA)” are within 0.2 log units of each other in “recombinant UMI read abundance (log10)” value: 0.207 for the first, 0.0131 for the second.

“CTTCTCTCATGGACCGGTTTTCCCGGTAATCCGTATTTGTA (site CTTCTCTCTAA)” and “CTTCTCTCATGGACCGGTTTTCCCGGTAATCCGTATTTGTA (site CTTCTCTCTCA)” are within 0.2 log units of each other in “recombinant UMI read abundance (log10)” value: 0.394 for the first, 0.552 for the second.

Going from “CTTCTCTCATGGACCGGTTTTCCCGGTAATCCGTATTTGTA (site CTTCTCTCTGA)” to “CTTCTCTCATGGACCGGTTTTCCCGGTAATCCGTATTTGTA (site CTTCTCTCTTA)”, the “recombinant UMI read abundance (log10)” value rises from 0.448 to 2.28.

Compared with “CTTCTCTCATGGACCGGTTTTCCCGGTAATCCGTATTTGTA (site CTTCTCTCTTC)”, “CTTCTCTCATGGACCGGTTTTCCCGGTAATCCGTATTTGTA (site CTTCTCTCTTG)” is higher in “recombinant UMI read abundance (log10)” value: 0.278 for the first, 0.558 for the second.

First: CTTCTCTCATGGACCGGTTTTCCCGGTAATCCGTATTTGTA (site CTTCTCTCTTT)
Second: CTTCTCTCATGGACCGGTTTTCCCGGTAATCCGTATTTGTA (site CTTCTGTCTTA)
The “recombinant UMI read abundance (log10)” value of the first is higher: 0.676 for the first, 0.00544 for the second.

“CTTCTCTCATGGACCGGTTTTCCCGGTAATCCGTATTTGTA (site CTTCTTTCTTA)” and “CTTCTCTCATGGACCGGTTTTCCCGGTAATCCGTATTTGTA (site CTTGTCTCTTA)” are within 0.2 log units of each other in “recombinant UMI read abundance (log10)” value: 0 for the first, 0.00827 for the second.

“CTTCTCTCATGGACCGGTTTTCCCGGTAATCCGTATTTGTA (site CTTTTCTCTTA)” and “CTTCTCTCATGGACCGGTTTTCCCGGTAATCCGTATTTGTA (site GTTCTCTCTTA)” are within 0.2 log units of each other in “recombinant UMI read abundance (log10)” value: 0 for the first, 0.0236 for the second.

Going from “CTTCTCTCATGGACCGGTTTTCCCGGTAATCCGTATTTGTA (site TTTCTCTCTTA)” to “CTTCTCTCATGGACCGGTTTTCCCGGTAATCCGTATTTGTG (site CTTCTCTCTAA)”, the “recombinant UMI read abundance (log10)” value falls from 0.396 to 0.0117.

“CTTCTCTCATGGACCGGTTTTCCCGGTAATCCGTATTTGTG (site CTTCTCTCTCA)” and “CTTCTCTCATGGACCGGTTTTCCCGGTAATCCGTATTTGTG (site CTTCTCTCTGA)” are within 0.2 log units of each other in “recombinant UMI read abundance (log10)” value: 0.154 for the first, 0 for the second.

Going from “CTTCTCTCATGGACCGGTTTTCCCGGTAATCCGTATTTGTG (site CTTCTCTCTTA)” to “CTTCTCTCATGGACCGGTTTTCCCGGTAATCCGTATTTGTT (site CTTCTCTCTAA)”, the “recombinant UMI read abundance (log10)” value rises from 0 to 2.22.

In the case of “CTTCTCTCATGGACCGGTTTTCCCGGTAATCCGTATTTGTT (site CTTCTCTCTCA)”, the “recombinant UMI read abundance (log10)” value is reported as 0.0142.
